Test results published in publication PMC4492758 (Pharmacology Research & Perspectives, 2015).
Several values for one entry are separate records, joined by “and”; a condition that tells them apart may be missing. Identical values can stand only once. Entries after “also recorded” stand apart in the source; their conditions may differ. Counter-ions that a name gives are not always drawn. Like-named read-outs stand apart in the source and are kept apart here. Marks after values point to notes of the source that are not given here.

Columns and labels:
[1] = biological target: rat serotonin transporter (Rattus norvegicus, UniProt P31652); assay: Rat SERT binding, [3H]citalopram, rat cerebral cortex membranes
Human adrenergic α1A = Human adrenergic α1A (Homo sapiens, UniProt P35348); assay: Off-target radioligand binding assay
Human adrenergic α1B = Human adrenergic α1B (Homo sapiens, UniProt P35368); assay: Off-target radioligand binding assay; conditions: read-out: Percentage inhibition at 1 μmol/L
Human adrenergic α2A = Human adrenergic α2A (Homo sapiens, UniProt P08913); assay: Off-target radioligand binding assay; conditions: read-out: Percentage inhibition at 1 μmol/L
Human adrenergic α2B = Human adrenergic α2B (Homo sapiens, UniProt P18089); assay: Off-target radioligand binding assay; conditions: read-out: Percentage inhibition at 1 μmol/L
Human adrenergic α2C = Human adrenergic α2C (Homo sapiens, UniProt P18825); assay: Off-target radioligand binding assay; conditions: read-out: Percentage inhibition at 1 μmol/L
Human adrenergic β1 = Human adrenergic β1 (Homo sapiens, UniProt P08588); assay: Off-target radioligand binding assay; conditions: read-out: Percentage inhibition at 1 μmol/L
Human adrenergic β2 = Human adrenergic β2 (Homo sapiens, UniProt P07550); assay: Off-target radioligand binding assay; conditions: read-out: Percentage inhibition at 1 μmol/L
Human adrenergic β3 = Human adrenergic β3 (Homo sapiens, UniProt P13945); assay: Off-target radioligand binding assay; conditions: read-out: Percentage inhibition at 1 μmol/L
Human dopamine D1 = Human dopamine D1 (Homo sapiens, UniProt P21728); assay: Off-target radioligand binding assay; conditions: read-out: Percentage inhibition at 1 μmol/L
Human dopamine D2L = Human dopamine D2L (Homo sapiens, UniProt P14416); assay: Off-target radioligand binding assay; conditions: read-out: Percentage inhibition at 1 μmol/L
Human dopamine D3 = Human dopamine D3 (Homo sapiens, UniProt P35462); assay: Off-target radioligand binding assay
Rat GABAA = assay: Off-target radioligand binding assay; conditions: [3H] Flunitrazepam 0.88 nmol/L
Human histamine H1 = Human histamine H1 (Homo sapiens, UniProt P35367); assay: Off-target radioligand binding assay
Human histamine H2 = Human histamine H2 (Homo sapiens, UniProt P25021); assay: Off-target radioligand binding assay; conditions: read-out: Percentage inhibition at 1 μmol/L
Human musucarinic M1 = Human musucarinic M1 (Homo sapiens, UniProt P11229); assay: Off-target radioligand binding assay; conditions: read-out: Percentage inhibition at 1 μmol/L
Human musucarinic M2 = Human musucarinic M2 (Homo sapiens, UniProt P08172); assay: Off-target radioligand binding assay; conditions: read-out: Percentage inhibition at 1 μmol/L
Human opiate δ = Human opiate δ (Homo sapiens, UniProt P41143); assay: Off-target radioligand binding assay; conditions: read-out: Percentage inhibition at 1 μmol/L
Human opiate κ = Human opiate κ (Homo sapiens, UniProt P41145); assay: Off-target radioligand binding assay; conditions: read-out: Percentage inhibition at 1 μmol/L
Human opiate μ = Human opiate μ (Homo sapiens, UniProt P35372); assay: Off-target radioligand binding assay; conditions: read-out: Percentage inhibition at 1 μmol/L
[2] = biological target: guinea pig serotonin 5-HT4 (Cavia porcellus, UniProt O70528); assay: Off-target radioligand binding assay; conditions: read-out: Percentage inhibition at 1 μmol/L
Human serotonin 5-HT1B = Human serotonin 5-HT1B (Homo sapiens, UniProt P28222); assay: Off-target radioligand binding assay; conditions: read-out: Percentage inhibition at 1 μmol/L
Human serotonin 5-HT2A = Human serotonin 5-HT2A (Homo sapiens, UniProt P28223); assay: Off-target radioligand binding assay; conditions: read-out: Percentage inhibition at 1 μmol/L
Human serotonin 5-HT2B = Human serotonin 5-HT2B (Homo sapiens, UniProt P41595); assay: Off-target radioligand binding assay
Human serotonin 5-HT2C = Human serotonin 5-HT2C (Homo sapiens, UniProt P28335); assay: Off-target radioligand binding assay; conditions: read-out: Percentage inhibition at 1 μmol/L
Human serotonin 5-HT3 = Human serotonin 5-HT3 (Homo sapiens, UniProt P46098); assay: Off-target radioligand binding assay; conditions: read-out: Percentage inhibition at 1 μmol/L
Human serotonin 5-HT5A = Human serotonin 5-HT5A (Homo sapiens, UniProt P47898); assay: Off-target radioligand binding assay; conditions: read-out: Percentage inhibition at 1 μmol/L
Human serotonin 5-HT6 = Human serotonin 5-HT6 (Homo sapiens, UniProt P50406); assay: Off-target radioligand binding assay; conditions: read-out: Percentage inhibition at 1 μmol/L
Human serotonin 5-HT7 = Human serotonin 5-HT7 (Homo sapiens, UniProt P34969); assay: Off-target radioligand binding assay
[3] = biological target: pig catechol-O-methyltransferase (Sus scrofa, UniProt Q99028); type: biochemical; conditions: read-out: percent inhibition
[4] = biological target: human monoamine oxidase-A (Homo sapiens, UniProt P21397); assay: Off-target enzyme assay, 14C-labeled substrate; type: biochemical; conditions: read-out: percent inhibition
[5] = biological target: human monoamine oxidase -B (Homo sapiens, UniProt P27338); assay: Off-target enzyme assay, 14C-labeled substrate; type: biochemical; conditions: read-out: percent inhibition
[6] = Pharmacokinetics of DSP-1053 in male rats; type: in vivo; conditions: Crl:CD(SD), rat, plasma
[7] = tested on: extracellular 5-HT levels in the rat frontal cortex; assay: Rat microdialysis, extracellular 5-HT; type: in vivo; conditions: for maximum increase of 5-HT extracellular levels, % of baseline value: 100 min after administration, mean ± SEM
[8] = tested on: dopamine extracellular levels in the rat frontal cortex; assay: Rat microdialysis, extracellular dopamine; type: in vivo; conditions: any dose (1, 3, 10 mg kg^−1 p.o.)
rats [9] = assay: Rat forced swimming test; type: in vivo; conditions: vs vehicle
[10] = tested on: sham-operated and olfactory bulbectomized rats; assay: Olfactory bulbectomy model, emotional scoring; type: in vivo, rat
[11] = tested on: sham-operated and olfactory bulbectomized rats; assay: Olfactory bulbectomy model, open-field test; type: in vivo, rat
Suncus murinus [12] = assay: Evaluation of emesis in Suncus murinus, experiment 1; type: in vivo; conditions: for Number of animals vomited/tested: single dose, 60 min observation; for Total emetic episode: 1 h observation, animals that vomited
Suncus murinus [13] = conditions: 60 mg kg^−1 po, 19 animals per group
rats [14] = assay: Conditioned taste aversion test in rats; conditions: 100 mg kg^−1; Day 4, 24 h after administration, vs vehicle
human 5-HT1A receptor = human 5-HT1A receptor (Homo sapiens, UniProt P08908); assay: biochemical; conditions: read-out: I.A. (intrinsic activity), GTPγS binding
Suncus murinus [15] = conditions: ref Mine et al. [2013], cited from earlier work; for Number of animals vomited/tested: single dose
[16] = read-out: Percentage inhibition at 1 μmol/L
[17] = olfactory bulbectomized animals, 0.3, 1 and 3 mg/kg, 1- and 2-week administration
[18] = sham-operated animals, 0.3, 1 and 3 mg/kg, 1- and 2-week administration
[19] = 1-week administration, vs vehicle
[20] = sham-operated animals, 2-week administration

Sequence of Human histamine H1 (P35367 whole entry): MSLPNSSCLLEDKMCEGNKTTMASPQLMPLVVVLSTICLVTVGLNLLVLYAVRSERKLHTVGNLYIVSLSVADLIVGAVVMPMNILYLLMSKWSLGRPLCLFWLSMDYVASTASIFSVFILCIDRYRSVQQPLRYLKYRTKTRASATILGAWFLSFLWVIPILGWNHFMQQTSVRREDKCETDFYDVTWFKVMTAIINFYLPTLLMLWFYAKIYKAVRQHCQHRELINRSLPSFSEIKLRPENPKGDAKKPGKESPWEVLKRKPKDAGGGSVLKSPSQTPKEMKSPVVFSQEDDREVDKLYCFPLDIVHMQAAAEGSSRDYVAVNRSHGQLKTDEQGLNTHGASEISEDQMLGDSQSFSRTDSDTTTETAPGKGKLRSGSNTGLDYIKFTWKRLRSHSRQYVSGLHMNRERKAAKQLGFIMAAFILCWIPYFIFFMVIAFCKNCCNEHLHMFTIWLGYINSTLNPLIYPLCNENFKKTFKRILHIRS
Sequence of Human adrenergic α1A (P35348 whole entry): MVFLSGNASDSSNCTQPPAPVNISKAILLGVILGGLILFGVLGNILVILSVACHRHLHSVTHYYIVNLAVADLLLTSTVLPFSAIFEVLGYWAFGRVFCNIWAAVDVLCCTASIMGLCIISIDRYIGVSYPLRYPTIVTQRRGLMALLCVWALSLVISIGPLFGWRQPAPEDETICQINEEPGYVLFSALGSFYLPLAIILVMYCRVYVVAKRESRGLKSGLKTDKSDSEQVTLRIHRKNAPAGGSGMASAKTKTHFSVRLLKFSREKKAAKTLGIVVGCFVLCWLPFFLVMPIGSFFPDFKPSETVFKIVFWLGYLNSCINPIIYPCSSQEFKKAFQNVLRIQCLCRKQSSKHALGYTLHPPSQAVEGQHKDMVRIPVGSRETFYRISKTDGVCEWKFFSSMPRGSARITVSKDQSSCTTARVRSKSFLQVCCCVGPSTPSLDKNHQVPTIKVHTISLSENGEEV
Sequence of Human serotonin 5-HT2B (P41595 whole entry): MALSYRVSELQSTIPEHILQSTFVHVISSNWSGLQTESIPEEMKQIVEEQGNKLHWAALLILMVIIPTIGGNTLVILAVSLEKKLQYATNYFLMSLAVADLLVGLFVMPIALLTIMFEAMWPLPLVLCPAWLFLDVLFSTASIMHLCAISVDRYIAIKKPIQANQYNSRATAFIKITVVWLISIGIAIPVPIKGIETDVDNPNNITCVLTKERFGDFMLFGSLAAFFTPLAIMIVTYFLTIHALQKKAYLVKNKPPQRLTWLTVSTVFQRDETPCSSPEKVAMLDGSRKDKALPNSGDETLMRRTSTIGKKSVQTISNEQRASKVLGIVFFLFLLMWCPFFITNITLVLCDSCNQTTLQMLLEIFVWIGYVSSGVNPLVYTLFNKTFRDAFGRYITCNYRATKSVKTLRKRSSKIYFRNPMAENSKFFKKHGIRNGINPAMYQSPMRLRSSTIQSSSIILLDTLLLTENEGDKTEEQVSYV
Sequence of Human dopamine D3 (P35462 whole entry): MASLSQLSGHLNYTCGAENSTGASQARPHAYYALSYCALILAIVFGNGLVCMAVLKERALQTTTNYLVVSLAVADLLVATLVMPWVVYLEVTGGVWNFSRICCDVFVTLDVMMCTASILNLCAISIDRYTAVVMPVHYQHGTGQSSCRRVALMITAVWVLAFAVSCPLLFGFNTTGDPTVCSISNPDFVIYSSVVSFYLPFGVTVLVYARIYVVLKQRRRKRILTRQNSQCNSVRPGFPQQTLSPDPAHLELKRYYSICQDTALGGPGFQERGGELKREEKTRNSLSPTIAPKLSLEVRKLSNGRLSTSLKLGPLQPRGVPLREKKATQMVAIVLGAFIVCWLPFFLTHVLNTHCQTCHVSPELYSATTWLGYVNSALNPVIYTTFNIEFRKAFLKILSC
Sequence of Human serotonin 5-HT7 (P34969 whole entry): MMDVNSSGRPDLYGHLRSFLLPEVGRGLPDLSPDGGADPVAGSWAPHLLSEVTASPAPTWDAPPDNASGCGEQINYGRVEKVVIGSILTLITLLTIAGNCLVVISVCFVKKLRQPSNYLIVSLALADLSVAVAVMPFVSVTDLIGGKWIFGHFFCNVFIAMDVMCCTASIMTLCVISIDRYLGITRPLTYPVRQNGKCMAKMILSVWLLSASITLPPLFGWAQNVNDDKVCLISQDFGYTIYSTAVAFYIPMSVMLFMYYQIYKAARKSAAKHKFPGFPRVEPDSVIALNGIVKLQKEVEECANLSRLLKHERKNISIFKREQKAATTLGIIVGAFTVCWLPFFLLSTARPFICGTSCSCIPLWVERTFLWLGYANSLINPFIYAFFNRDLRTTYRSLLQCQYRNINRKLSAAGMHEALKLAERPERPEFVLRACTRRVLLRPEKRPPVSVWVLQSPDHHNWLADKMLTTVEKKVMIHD
Sequence of Human serotonin 5-HT5A (P47898 whole entry): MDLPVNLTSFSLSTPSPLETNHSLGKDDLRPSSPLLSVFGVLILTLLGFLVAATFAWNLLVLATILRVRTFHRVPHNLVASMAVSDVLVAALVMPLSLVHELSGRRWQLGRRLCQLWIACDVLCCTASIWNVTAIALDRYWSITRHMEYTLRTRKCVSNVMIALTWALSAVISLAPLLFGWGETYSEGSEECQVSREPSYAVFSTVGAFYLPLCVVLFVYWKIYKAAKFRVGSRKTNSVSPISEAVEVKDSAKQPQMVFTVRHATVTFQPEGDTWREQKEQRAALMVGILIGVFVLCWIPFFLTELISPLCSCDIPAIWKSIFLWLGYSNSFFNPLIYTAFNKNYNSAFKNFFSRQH
Sequence of Human adrenergic α2A (P08913 whole entry): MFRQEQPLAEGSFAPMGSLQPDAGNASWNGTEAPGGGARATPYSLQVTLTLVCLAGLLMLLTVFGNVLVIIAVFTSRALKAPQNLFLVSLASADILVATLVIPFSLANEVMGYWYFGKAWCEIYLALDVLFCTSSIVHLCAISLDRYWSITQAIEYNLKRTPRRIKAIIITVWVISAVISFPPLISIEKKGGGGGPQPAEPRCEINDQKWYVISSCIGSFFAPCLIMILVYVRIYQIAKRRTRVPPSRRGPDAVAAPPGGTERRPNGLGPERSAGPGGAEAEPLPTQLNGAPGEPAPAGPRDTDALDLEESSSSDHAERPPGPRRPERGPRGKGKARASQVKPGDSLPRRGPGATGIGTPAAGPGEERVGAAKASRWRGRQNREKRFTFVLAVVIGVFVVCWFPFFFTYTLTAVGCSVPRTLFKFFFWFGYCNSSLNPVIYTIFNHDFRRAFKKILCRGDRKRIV
Sequence of Human adrenergic β2 (P07550 whole entry): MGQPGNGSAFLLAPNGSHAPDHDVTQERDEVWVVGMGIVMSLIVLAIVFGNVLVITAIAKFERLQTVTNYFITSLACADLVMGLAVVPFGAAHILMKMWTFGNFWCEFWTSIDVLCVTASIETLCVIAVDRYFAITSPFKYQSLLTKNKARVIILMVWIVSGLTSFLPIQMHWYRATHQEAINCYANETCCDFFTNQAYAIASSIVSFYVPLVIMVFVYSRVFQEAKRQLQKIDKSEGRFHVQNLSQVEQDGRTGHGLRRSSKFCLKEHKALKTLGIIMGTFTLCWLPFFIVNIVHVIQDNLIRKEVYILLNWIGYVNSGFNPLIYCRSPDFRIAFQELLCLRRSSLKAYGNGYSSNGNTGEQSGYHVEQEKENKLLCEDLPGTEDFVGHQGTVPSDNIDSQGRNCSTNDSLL
Sequence of Human dopamine D2L (P14416 whole entry): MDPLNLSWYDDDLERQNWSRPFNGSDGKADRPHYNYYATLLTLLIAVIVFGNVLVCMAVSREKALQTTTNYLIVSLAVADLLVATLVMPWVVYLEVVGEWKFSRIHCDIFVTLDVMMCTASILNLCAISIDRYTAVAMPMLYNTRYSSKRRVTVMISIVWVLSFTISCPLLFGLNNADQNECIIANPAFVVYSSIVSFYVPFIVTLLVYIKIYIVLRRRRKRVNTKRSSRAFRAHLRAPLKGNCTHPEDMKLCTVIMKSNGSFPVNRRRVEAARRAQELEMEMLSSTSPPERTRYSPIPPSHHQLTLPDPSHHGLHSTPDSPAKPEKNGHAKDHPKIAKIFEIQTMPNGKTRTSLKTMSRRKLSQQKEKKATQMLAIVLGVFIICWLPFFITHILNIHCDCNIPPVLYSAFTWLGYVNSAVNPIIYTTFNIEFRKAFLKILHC
Sequence of Human musucarinic M2 (P08172 whole entry): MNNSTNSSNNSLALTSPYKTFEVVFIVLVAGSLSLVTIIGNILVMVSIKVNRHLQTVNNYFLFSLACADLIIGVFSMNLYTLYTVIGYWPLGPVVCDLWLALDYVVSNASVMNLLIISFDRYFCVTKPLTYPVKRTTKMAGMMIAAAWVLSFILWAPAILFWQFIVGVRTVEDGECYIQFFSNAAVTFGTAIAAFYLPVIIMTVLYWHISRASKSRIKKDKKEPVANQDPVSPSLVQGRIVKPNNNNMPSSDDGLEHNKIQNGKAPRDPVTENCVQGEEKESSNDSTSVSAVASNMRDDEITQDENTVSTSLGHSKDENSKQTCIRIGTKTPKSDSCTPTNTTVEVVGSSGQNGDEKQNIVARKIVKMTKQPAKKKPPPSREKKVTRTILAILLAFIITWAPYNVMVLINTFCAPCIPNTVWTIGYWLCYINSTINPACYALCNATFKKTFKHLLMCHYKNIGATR
Sequence of Human histamine H2 (P25021 whole entry): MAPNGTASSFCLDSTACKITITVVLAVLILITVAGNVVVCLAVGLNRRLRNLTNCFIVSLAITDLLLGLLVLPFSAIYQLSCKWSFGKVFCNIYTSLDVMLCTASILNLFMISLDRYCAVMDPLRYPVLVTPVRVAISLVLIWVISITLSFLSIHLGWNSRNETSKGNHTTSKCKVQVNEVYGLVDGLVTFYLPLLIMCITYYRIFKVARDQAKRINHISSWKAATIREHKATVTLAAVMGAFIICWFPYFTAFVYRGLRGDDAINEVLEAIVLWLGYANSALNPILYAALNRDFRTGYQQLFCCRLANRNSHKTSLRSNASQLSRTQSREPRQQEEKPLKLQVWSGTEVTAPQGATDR

Compound: COCCOc1cc(CC2CCN(CCc3ccc4c(c3)C(=O)CCO4)CC2)ccc1Br.O=S(=O)(O)c1ccccc1 [DSP-1053, 6-(2-{4-[4-Bromo-3-(2-methoxyethoxy)benzyl]piperidin-1-yl}ethyl)-2,3-dihydro-4H-chromen-4-one benzenesulfonate]
- Ki [1]: 0.000489 ± 3.9e-05 µM
- Ki (Human adrenergic α1A): 0.528 ± 0.045 µM
- inhibition at 1 µM (Human adrenergic α1A; [16]): 57%
- inhibition at 1 µM (Human adrenergic α1B): 1%
- inhibition at 1 µM (Human adrenergic α2A): 26%
- inhibition at 1 µM (Human adrenergic α2B): 6%
- inhibition at 1 µM (Human adrenergic α2C): 41%
- inhibition at 1 µM (Human adrenergic β1): 14%
- inhibition at 1 µM (Human adrenergic β2): 22%
- inhibition at 1 µM (Human adrenergic β3): 19%
- inhibition at 1 µM (Human dopamine D1): 4%
- inhibition at 1 µM (Human dopamine D2L): 35%
- Ki (Human dopamine D3): 0.249 ± 0.021 µM
- inhibition at 1 µM (Human dopamine D3; [16]): 65%
- Percentage inhibition at 1 μmol/L (Rat GABAA): 8%
- Ki (Human histamine H1): 0.00746 ± 0.0002 µM
- inhibition at 1 µM (Human histamine H1; [16]): 93%
- inhibition at 1 µM (Human histamine H2): 37%
- inhibition at 1 µM (Human musucarinic M1): 9%
- inhibition at 1 µM (Human musucarinic M2): 21%
- inhibition at 1 µM (Human opiate δ): 10%
- inhibition at 1 µM (Human opiate κ): 0%
- inhibition at 1 µM (Human opiate μ): 2%
- inhibition at 1 µM [2]: 26%
- inhibition at 1 µM (Human serotonin 5-HT1B): 47%
- inhibition at 1 µM (Human serotonin 5-HT2A): 35%
- Ki (Human serotonin 5-HT2B): 0.117 ± 0.028 µM
- inhibition at 1 µM (Human serotonin 5-HT2B; [16]): 79%
- inhibition at 1 µM (Human serotonin 5-HT2C): 20%
- inhibition at 1 µM (Human serotonin 5-HT3): 0%
- inhibition at 1 µM (Human serotonin 5-HT5A): 2%
- inhibition at 1 µM (Human serotonin 5-HT6): 14%
- Ki (Human serotonin 5-HT7): 0.288 ± 0.035 µM
- inhibition at 1 µM (Human serotonin 5-HT7; [16]): 73%
- inhibition at 1 µM [3]: 0%
- inhibition at 1 µM [4]: 5.28%
- inhibition at 1 µM [5]: 0.19%
- clearance ([6]; iv, 1 mg/kg): 3.46 L/h/kg
- Tmax ([6]; po, 10 mg/kg): ≤ 1 h
- maximum increase of 5-HT extracellular levels, % of baseline value ([7]; 3 mg kg^−1 p.o.): 180 ± 25.9%
- maximum increase of 5-HT extracellular levels, % of baseline value ([7]; 10 mg kg^−1 p.o.): 264 ± 58.0%
- extracellular 5-HT levels ([7]; given once at 3 and 10 mg kg^−1): dose-dependently increased
- dopamine extracellular levels in the rat frontal cortex [8]: did not affect
- immobility time (rats [9]; 2-week consecutive administration, 1 mg kg^−1 p.o.): significantly decreased
- immobility time (rats [9]; 2-week consecutive administration, 1 mg kg^−1 p.o., listed as DSR-1053): significantly reduced
- emotional scores [10, 17]: reduced; also recorded: significant decrease
- emotional scores [10, 18]: no effect
- number of line crosses [11, 17]: reduced; also recorded: significant decrease
- number of line crosses [11, 18]: no effect
- Number of animals vomited/tested (Suncus murinus [12]; 10 mg kg^−1 po): 0 and 0/6
- Number of animals vomited/tested (Suncus murinus [12]; 30 mg kg^−1 po): 1 and 1/6
- Total emetic episode (Suncus murinus [12]; 30 mg kg^−1 po): 2
- Number of animals vomited/tested (Suncus murinus [12]; 60 mg kg^−1 po): 3 and 3/6
- Total emetic episode (Suncus murinus [12]; 60 mg kg^−1 po, mean ± SEM): 5.3 ± 1.0
- number of animals that showed emesis on the first day, of 19 animals (Suncus murinus [13]): 9
- saccharin consumption (rats [14]): significantly inhibited

Compound: CC(C)NCC(O)COc1cccc2[nH]ccc12 (stereo not shown) [Pindolol, pindolol]
- Emax (human 5-HT1A receptor): 13.3 ± 3.8%

Compound: Fc1ccc([C@@H]2CCNC[C@H]2COc2ccc3c(c2)OCO3)cc1 [Paroxetine, paroxetine hydrochloride, reference compound]
- immobility time (rats [9]; 2-week administration): no effect
- immobility time (rats [9]; 3-week administration, 3 and 10 mg kg^−1 p.o.): reduced immobility time
- emotional scores [10, 19]: did not alter
- emotional scores ([10]; olfactory bulbectomized animals, 3 and 10 mg/kg, 2-week administration): significant decrease
- emotional scores [10, 20]: no effect
- number of line crosses [11, 19]: did not alter
- number of line crosses ([11]; olfactory bulbectomized animals, 10 mg/kg, 2-week administration): significant decrease
- number of line crosses [11, 20]: no effect
- number of animals that showed emesis on the first day, of 19 animals (Suncus murinus [13]): 12
- Number of animals vomited/tested (Suncus murinus [15]; 10 mg kg^−1 po): 0/6
- Number of animals vomited/tested (Suncus murinus [15]; 10 mg kg^−1 po, listed as paroxetine): 0
- Number of animals vomited/tested (Suncus murinus [15]; 30 mg kg^−1 po): 2/6
- Number of animals vomited/tested (Suncus murinus [15]; 30 mg kg^−1 po, listed as paroxetine): 2
- Total emetic episode (Suncus murinus [15]; 30 mg kg^−1 po, 1 h observation, animals that vomited): 6.8
- Number of animals vomited/tested (Suncus murinus [15]; 60 mg kg^−1 po): 6/6 ^*
- Number of animals vomited/tested (Suncus murinus [15]; 60 mg kg^−1 po, listed as paroxetine): 6
